This is an account of results in ChEMBL document CHEMBL3436046, “Predictive model for L-type channel inhibition: multichannel block in QT prolongation risk assessment” (J Appl Toxicol, 2012).

Assay [1] has as its target T1, Voltage-dependent L-type calcium channel subunit alpha-1C (Rattus norvegicus, UniProt P22002). The assay can be described thus: (§1) Inhibition of L-type calcium channel measured using whole-cell patch clamp in rat ventricular myocytes. The arrangement: ca sol conc 1 mM, temp 20-24 C. In kind it is functional, cell-based, Heart, Ventricular myocyte. Background: Patch clamp records ionic current or voltage across a cell membrane.

In assay [2] the target is T2, Voltage-dependent L-type calcium channel subunit alpha-1C (Cavia porcellus, UniProt O35505). As to the kind of experiment: (§2) Inhibition of L-type calcium channel measured using whole-cell patch clamp in guinea pig ventricular myocytes. In kind it is functional, cell-based, Heart, Ventricular myocyte. Further details: ca sol conc 1.8 mM, temp 20-22 C.
In assay [3] the target is T2, Voltage-dependent L-type calcium channel subunit alpha-1C. The assay is described as §2. The class given is functional, cell-based, Heart, Ventricular myocyte. Further details: ca sol conc 1.8 mM, temp 20-22 C. The source holds these as a separate data set.
Assay [4] concerns the target T1, Voltage-dependent L-type calcium channel subunit alpha-1C. The assay is described as §1. The class given is functional, cell-based, Heart, Ventricular myocyte. The arrangement: ca sol conc 1.8 mM, temp 21-23 C.
Assay [5] deals with T2, Voltage-dependent L-type calcium channel subunit alpha-1C. The assay is described as §2. The class given is functional, cell-based, Heart, Ventricular myocyte. Further details: ca sol conc 2 mM, temp 22-26 C.
The target of assay [6] is T3, Voltage-dependent L-type calcium channel subunit alpha-1C (Homo sapiens, UniProt Q13936). As to the kind of experiment: (§3) Inhibition of L-type calcium channel measured using […] kidney cells heterologically expressing alpha-1C subunit. In kind it is functional, cell-based, HEK293. The arrangement: ca sol conc 0 mM, temp room.
T3 sequence (Q13936 whole entry): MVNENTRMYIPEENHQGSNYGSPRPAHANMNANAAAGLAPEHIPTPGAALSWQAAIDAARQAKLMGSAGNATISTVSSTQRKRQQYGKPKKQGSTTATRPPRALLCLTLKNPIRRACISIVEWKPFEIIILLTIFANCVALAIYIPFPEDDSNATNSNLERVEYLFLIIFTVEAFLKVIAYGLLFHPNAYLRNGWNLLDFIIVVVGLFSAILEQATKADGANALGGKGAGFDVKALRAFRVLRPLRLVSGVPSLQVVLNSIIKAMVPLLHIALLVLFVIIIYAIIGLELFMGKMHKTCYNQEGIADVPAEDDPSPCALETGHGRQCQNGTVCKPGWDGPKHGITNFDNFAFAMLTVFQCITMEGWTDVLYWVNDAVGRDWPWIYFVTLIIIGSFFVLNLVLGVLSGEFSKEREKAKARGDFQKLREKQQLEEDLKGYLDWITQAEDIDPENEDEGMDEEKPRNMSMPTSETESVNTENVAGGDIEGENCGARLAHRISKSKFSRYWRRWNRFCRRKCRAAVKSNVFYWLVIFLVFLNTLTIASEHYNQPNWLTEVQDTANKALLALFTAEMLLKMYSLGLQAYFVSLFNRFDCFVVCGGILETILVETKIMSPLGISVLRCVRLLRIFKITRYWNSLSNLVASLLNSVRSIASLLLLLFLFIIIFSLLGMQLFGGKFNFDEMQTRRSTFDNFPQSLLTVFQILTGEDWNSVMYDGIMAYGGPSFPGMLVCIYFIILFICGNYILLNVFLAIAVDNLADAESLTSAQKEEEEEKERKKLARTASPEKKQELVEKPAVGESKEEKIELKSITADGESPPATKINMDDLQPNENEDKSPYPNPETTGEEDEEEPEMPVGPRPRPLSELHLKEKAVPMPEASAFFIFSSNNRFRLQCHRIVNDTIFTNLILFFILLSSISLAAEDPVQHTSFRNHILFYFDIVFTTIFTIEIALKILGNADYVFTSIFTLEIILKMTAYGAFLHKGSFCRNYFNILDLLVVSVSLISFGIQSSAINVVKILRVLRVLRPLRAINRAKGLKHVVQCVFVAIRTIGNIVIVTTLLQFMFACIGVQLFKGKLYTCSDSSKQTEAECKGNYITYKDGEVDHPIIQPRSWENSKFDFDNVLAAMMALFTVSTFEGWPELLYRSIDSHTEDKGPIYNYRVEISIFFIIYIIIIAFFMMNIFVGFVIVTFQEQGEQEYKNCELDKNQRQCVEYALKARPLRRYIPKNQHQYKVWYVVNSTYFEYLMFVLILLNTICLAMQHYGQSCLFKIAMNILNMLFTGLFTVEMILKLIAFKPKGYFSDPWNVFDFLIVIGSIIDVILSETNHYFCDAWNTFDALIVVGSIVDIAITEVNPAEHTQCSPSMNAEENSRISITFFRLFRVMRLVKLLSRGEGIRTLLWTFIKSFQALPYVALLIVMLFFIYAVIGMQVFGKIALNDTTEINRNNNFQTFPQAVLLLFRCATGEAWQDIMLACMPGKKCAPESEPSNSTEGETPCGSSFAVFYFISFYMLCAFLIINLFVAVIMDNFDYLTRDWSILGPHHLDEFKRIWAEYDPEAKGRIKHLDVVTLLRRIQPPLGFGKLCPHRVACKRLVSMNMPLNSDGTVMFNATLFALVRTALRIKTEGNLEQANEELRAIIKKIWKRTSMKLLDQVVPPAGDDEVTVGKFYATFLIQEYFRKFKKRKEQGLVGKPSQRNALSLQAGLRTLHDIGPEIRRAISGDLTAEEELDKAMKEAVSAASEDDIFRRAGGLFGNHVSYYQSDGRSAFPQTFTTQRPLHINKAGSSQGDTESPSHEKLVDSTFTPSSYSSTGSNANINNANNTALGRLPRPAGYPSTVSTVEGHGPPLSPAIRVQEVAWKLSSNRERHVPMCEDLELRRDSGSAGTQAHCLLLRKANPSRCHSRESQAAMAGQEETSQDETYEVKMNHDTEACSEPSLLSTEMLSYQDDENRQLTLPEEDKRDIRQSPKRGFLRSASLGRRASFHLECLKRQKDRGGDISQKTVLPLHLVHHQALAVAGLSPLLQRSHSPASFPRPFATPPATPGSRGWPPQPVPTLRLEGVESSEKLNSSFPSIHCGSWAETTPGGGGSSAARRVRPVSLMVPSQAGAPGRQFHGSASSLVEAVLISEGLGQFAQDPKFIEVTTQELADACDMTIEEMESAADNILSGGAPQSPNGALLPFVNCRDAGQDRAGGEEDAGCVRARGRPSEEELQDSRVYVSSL
In assay [7] the target is T2, Voltage-dependent L-type calcium channel subunit alpha-1C. Described as §2. In kind it is functional, cell-based, Heart, Ventricular myocyte. Further details: ca sol conc 1 mM, temp room.
The target is the same in assay [8]. The assay is described as §2. In kind it is functional, cell-based, Heart, Ventricular myocyte. The arrangement: ca sol conc 1 mM, temp room. The source holds these as a separate data set.
Assay [9] shares this target. The description is as §2. In kind it is functional, cell-based, Heart, Ventricular myocyte. Further details: ca sol conc 2 mM, temp room.
Assay [10] has as its target T1, Voltage-dependent L-type calcium channel subunit alpha-1C. The assay is described as §1. In kind it is functional, cell-based, Heart, Ventricular myocyte. The arrangement: ca sol conc 2 mM, temp 36-37 C.
Assay [11] shares this target. The assay is described as §1. In kind it is functional, cell-based, Heart, Ventricular myocyte. Further details: ca sol conc 2 mM, temp 36-37 C. This is another data set of the same source.
Assay [12] concerns the target T3, Voltage-dependent L-type calcium channel subunit alpha-1C. The assay can be described thus: (§4) Inhibition of L-type calcium channel measured using 2-electrode voltage-clamp in Xenopus oocyte heterologically expressing alpha-1C subunit. In kind it is functional, cell-based. The arrangement: ca sol conc 0 mM, temp room.
The target is the same in assay [13]. Described as §4. The class given is functional, cell-based. Further details: ca sol conc 0 mM, temp room. The source holds these as a separate data set.
In assay [14] the target is T2, Voltage-dependent L-type calcium channel subunit alpha-1C. Described as §2. The class given is functional, cell-based, Heart, Ventricular myocyte. Further details: ca sol conc 1.8 mM, temp 36 C.
Assay [15] has as its target T1, Voltage-dependent L-type calcium channel subunit alpha-1C. The description is as §1. In kind it is functional, cell-based, Heart, Ventricular myocyte. Further details: ca sol conc 1.8 mM, temp 22-24 C.
The target of assay [16] is T2, Voltage-dependent L-type calcium channel subunit alpha-1C. Described as §2. The class given is functional, cell-based, Heart, Ventricular myocyte. Further details: ca sol conc 2.5 mM, temp room.
Assay [17] has the same target. Described as §2. In kind it is functional, cell-based, Heart, Ventricular myocyte. Further details: ca sol conc 1.8 mM, temp 20-25 C.
For assay [18] the target is unchanged. The description is as §2. In kind it is functional, cell-based, Heart, Ventricular myocyte. The arrangement: ca sol conc 1.8 mM, temp 36-37 C.
Assay [19] has the same target. Described as §2. In kind it is functional, cell-based, Heart, Ventricular myocyte. The arrangement: ca sol conc 1.8 mM, temp 32-33 C.
Assay [20] shares this target. The description is as §2. In kind it is functional, cell-based, Heart, Ventricular myocyte. Further details: ca sol conc 1.8 mM, temp room.
Assay [21] deals with T3, Voltage-dependent L-type calcium channel subunit alpha-1C. The assay is described as §3. In kind it is functional, cell-based, HEK293. The arrangement: ca sol conc 0 mM, temp 21-24 C.
Assay [22] has as its target T2, Voltage-dependent L-type calcium channel subunit alpha-1C. Described as §2. In kind it is functional, cell-based, Heart, Ventricular myocyte. Further details: ca sol conc 1 mM, temp 20 C.
For assay [23] the target is unchanged. Described as §2.
Assay [24] shares this target. Described as §2. The arrangement: ca sol conc 0 mM, temp 20-25 C. In kind it is functional, cell-based, Heart, Ventricular myocyte.
Assay [25] concerns the target T1, Voltage-dependent L-type calcium channel subunit alpha-1C. The description is as §1. Further details: ca sol conc 1 mM, temp 21-23 C. The class given is functional, cell-based, Heart, Ventricular myocyte.
Assay [26] has the same target. Described as §1. In kind it is functional, cell-based, Heart, Ventricular myocyte. Further details: ca sol conc 1 mM, temp 21-23 C. The source holds these as a separate data set.

pIC50: −log10 of the molar value.

T1 sequence (P22002 whole entry): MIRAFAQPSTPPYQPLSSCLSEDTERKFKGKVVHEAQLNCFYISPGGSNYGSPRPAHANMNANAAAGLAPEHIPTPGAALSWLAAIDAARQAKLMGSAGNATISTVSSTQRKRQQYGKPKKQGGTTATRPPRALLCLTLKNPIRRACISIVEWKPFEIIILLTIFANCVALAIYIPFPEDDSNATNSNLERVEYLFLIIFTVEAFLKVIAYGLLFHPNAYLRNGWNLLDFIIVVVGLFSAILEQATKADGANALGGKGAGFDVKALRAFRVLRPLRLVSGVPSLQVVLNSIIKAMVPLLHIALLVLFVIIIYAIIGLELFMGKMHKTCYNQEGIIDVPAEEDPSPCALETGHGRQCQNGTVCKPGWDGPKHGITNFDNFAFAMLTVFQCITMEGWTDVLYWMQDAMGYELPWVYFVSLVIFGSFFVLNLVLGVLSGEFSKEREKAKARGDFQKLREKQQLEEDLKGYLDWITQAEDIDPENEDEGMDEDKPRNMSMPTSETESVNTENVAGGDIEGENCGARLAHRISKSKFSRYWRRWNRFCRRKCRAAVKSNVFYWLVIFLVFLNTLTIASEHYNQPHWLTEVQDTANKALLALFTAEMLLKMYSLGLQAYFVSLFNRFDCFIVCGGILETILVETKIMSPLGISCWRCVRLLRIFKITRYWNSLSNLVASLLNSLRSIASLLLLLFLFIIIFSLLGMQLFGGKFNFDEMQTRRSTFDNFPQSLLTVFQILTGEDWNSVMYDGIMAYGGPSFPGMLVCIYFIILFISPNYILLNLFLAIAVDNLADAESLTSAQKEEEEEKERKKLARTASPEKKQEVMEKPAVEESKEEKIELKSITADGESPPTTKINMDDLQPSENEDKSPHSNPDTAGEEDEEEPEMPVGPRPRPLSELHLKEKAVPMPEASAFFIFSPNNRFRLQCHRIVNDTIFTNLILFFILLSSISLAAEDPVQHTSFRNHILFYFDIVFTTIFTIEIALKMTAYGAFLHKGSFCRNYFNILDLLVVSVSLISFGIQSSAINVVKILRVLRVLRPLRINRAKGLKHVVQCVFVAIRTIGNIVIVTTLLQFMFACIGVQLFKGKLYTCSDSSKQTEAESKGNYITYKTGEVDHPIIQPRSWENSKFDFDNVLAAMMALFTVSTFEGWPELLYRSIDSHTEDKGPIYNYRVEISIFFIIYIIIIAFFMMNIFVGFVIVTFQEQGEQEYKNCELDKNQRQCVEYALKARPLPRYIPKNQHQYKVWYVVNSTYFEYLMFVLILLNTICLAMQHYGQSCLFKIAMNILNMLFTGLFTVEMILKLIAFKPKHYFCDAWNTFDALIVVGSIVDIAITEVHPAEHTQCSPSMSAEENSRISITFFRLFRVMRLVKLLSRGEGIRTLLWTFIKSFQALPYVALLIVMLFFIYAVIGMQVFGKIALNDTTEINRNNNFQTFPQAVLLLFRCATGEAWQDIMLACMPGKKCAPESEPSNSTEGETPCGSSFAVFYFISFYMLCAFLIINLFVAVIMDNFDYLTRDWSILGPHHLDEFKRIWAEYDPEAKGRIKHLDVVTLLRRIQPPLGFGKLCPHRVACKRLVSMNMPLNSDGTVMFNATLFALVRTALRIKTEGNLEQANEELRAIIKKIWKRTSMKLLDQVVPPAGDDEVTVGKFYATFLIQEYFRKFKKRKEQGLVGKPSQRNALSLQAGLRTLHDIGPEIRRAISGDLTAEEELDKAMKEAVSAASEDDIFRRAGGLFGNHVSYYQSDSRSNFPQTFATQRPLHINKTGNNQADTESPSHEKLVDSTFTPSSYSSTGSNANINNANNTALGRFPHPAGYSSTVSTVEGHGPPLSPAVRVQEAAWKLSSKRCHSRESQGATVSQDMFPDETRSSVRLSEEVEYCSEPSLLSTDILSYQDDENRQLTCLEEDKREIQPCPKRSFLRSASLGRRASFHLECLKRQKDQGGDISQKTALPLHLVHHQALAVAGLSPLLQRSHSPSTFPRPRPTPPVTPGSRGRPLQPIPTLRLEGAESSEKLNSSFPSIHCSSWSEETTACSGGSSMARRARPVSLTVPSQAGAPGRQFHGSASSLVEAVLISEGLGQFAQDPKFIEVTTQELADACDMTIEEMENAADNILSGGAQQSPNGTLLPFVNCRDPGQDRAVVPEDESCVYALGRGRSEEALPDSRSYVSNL

A word on the pIC50: it is the IC50 on a negative log10 scale, so that one unit is a factor of ten. With `CN(C)CCCN1c2ccccc2CCc2ccc(Cl)cc21` [CLOMIPRAMINE], the pIC50 in [1] is 4.94.
As for `COc1cc(N)c(Cl)cc1C(=O)NC1CCN(CCCOc2ccc(F)cc2)CC1OC` (stereo not given) [CISAPRIDE], the pIC50 is 4.33 in assay [2] and 4.80 in [3].
For `Cc1c(C)c2c(c(C)c1O)CCC(C)(COc1ccc(CC3SC(=O)NC3=O)cc1)O2` (stereo not given) [TROGLITAZONE], in [4], the pIC50 is 5.02.
For the compound `CC(N)CCCC(C)(C)O` (stereo not given) [HEPTAMINOL], the pIC50 in assay [5] was 4.82.
On to `CN(C)CCN1C(=O)c2ccccc2N(C)c2ccccc21` [DIBENZEPIN], for which the pIC50 in assay [1] is 3.44.
With `CC[C@H](CO)Nc1nc(NCc2ccccc2)c2ncn(C(C)C)c2n1` [SELICICLIB], the pIC50 in [6] is 4.63.
With `CCCC(=O)OCOC(=O)C1=C(C)NC(C)=C(C(=O)OC)C1c1cccc(Cl)c1Cl` (stereo not given) [CLEVIDIPINE], the pIC50 in assay [7] was 8.15; in assay [8], 7.10.
As for `COc1ccc([C@@H]2Sc3ccccc3N(CCN(C)CCc3ccc(OC)c(OC)c3)C(=O)[C@@H]2OC(C)=O)cc1`, the pIC50 in [9] is 7.59.
With `CCCCC/C=C\C/C=C\C/C=C\C/C=C\CCCC(=O)O` [ARACHIDONIC ACID], the pIC50 in assay [10] was 5.24; in [11], 5.07.
For the compound `COC(=O)C1=C(C)NC(C)=C(C(=O)OC2CCCN(Cc3ccccc3)C2)C1c1cccc([N+](=O)[O-])c1` (stereo not given) [BENIDIPINE], the pIC50 in [12] is 5.31; in assay [13], 4.86.
As for `CCN(CC)CC#CCOC(=O)C(O)(c1ccccc1)C1CCCCC1` (stereo not given) [OXYBUTYNIN], the pIC50 in assay [14] was 4.79.
`O=c1c(-c2ccc(O)cc2)coc2cc(O)cc(O)c12` [GENISTEIN]: the pIC50 in [15] was 4.96; in assay [16], 4.70.
On to `Fc1ccc(C(OCCN2CCN(CCCc3ccccc3)CC2)c2ccc(F)cc2)cc1` [VANOXERINE], for which the pIC50 in assay [17] is 6.49.
On to `c1ccc(C2(c3ccccc3)CC2C2=NCCN2)cc1` (stereo not given) [CIFENLINE], for which the pIC50 in [18] was 4.52; in assay [19], 4.84; in assay [20], 4.85.
Take `CC(C)Cn1c(=O)n(C)c(=O)c2[nH]cnc21` [ISOBUTYLMETHYLXANTHINE]: the pIC50 in [21] is 3.33.
Turning to `Cc1ccc(O)c([C@H](CCN(C(C)C)C(C)C)c2ccccc2)c1` [TOLTERODINE], the pIC50 in assay [20] is 6.84.
On to `CC(NCCC(c1ccccc1)c1ccccc1)c1ccccc1` (stereo not given) [FENDILINE], for which, in assay [22], the pIC50 was 4.77.
In the case of `CCOC(=O)C1=C(COCCN)NC(C)=C(C(=O)OC)C1c1ccccc1Cl` (stereo not given) [AMLODIPINE], the pIC50 in [23] is 6.24.
`CNCCCN1c2ccccc2CCc2ccccc21` [DESIPRAMINE]: the pIC50 in assay [1] was 4.93.
As for `O=c1c(-c2ccc(O)cc2)coc2cc(O)ccc12` [DAIDZEIN], the pIC50 in [15] is 4.92.
Take `COCCOC(=O)C1=C(C)NC(C)=C(C(=O)OC(C)C)C1c1cccc([N+](=O)[O-])c1` (stereo not given) [NIMODIPINE]: the pIC50 in assay [24] is 6.52.
For the compound `COc1ccc(CCN(C)CCCOc2ccc(S(=O)(=O)c3c(C(C)C)cn4ccccc34)cc2)cc1OC` [FANTOFARONE], the pIC50 in [25] is 7.66; in assay [26], 5.05.
